Where no end group is shown, it is not given here.
What was measured:
Jurkat cells [1] = test: Cell-cycle analysis by FACS, DNA damage-induced G2 arrest; assay type: cell-based, human; settings: bleomycin 10 μg/ml
Procedure: (§1) Cell-cycle analysis. The cell cycle status of the cells treated with peptides and/or bleomycin or colchicine was analyzed by FACS, as described by Kawabe (1997) Nature 385:454-458. In brief, two million Jurkat cells were re-suspended and incubated in 300 μl Krishan's solution (0.1% Sodium citrate, 50 μg/ml PI, 20 μg/ml RNase A and 0.5% NP-40; see supra) for 1 hr at 4° C. and analyzed by FACScan™ (Beckton Dickinson, Mountain View, Calif.) with the program CELLQuest™ (Beckton Dickinson).
(§2) The cell cycle status of the cells treated with TAT-S216A or TAT-S216 upon the DNA damage-induced G2 arrest was analyzed by FACS analysis. Histone H1 kinase activities of theses cells were simultaneously monitored. […] Results are shown in FIG. 2: abrogation of DNA damage-induced G2 arrest by TAT-S216A and TAT-S216 peptides. FIG. 2A, FACS analysis of Jurkat cells treated with bleomycin and peptides. Cells were treated with bleomycin (10 μg/ml) with or without peptides (10 μM) for 20 hr. B, histone H1 kinase analysis. Cell lysates were prepared from the cells treated with the indicated reagent for 6 hr. Concentrations used were: hydroxyurea (HU), 100 μg/ml; bleomycin (Bleo), 10 μg/ml; colchicine, 5 μg/ml; TAT-S216A and TAT-S216, 10 μM. C, FACS analysis of colchicine -and peptide-treated cells. Jurkat cells were treated with colchicine (5 μg/ml) with or without peptide (10 μM) for 20 hr.

[2] = tested on: histone H1 kinase activity; test: Histone H1 kinase assay on lysates of treated Jurkat cells; assay type: cell-based, human; settings: FIG. 2B, 6 hr
Procedure: Histone H1 kinase assay. Ten million Jurkat cells were treated with hydroxyurea (100 μg/ml), bleomycin (10 μg/ml), or colchicine (5 μg/ml) with or without addition of TAT-S216A, TAT-S216 or TAT-Control (10 μM) for 6 hr. The cells were washed in cold PBS and lysed at 4° C. in 1 ml of buffer A (50 mM Tris pH 8, 2 mM DTT, 5 mM EDTA, 100 mM NaCl, 0.5% NP40, 20 mM Na3V04, 50 mM NaF, 4 μM Okadaic acid, 5 μg/ml aprotinin, 5 μg/ml pepstatin A and 5 μg/ml leupeptin.). Twenty microliter of p13^suc1 agarose beads (Upstate Biotechnology., Saranac, N.Y.) were added to the cleared lysates, incubated for 4 hr at 4° C., and washed five times with buffer A without 5 mM EDTA, 20 mM Na3V04, 50 mM NaF, 4 μM Okadaic acid. Histone HI kinase activity on the beads were analyzed by using Cdc2 kinase assay kit (Upstate Biotechnology) with [γ-^32P] ATP, followed by 12% SDS-PAGE electrophoresis, and autoradiographed to detect the phosphorylated Histone H1.
as §2

Jurkat cells [3] = test: Trypan blue dye exclusion analysis of Jurkat cells treated with bleomycin or colchicine with or without peptides; assay type: cell-based; settings: for effect on cytotoxicity by colchicine: FIG. 3B, colchicine 5 μg/ml
Procedure: (§3) The effect of TAT-S216A and TAT-S216 on the cell death induced by bleomycin was examined. The results are shown in FIG. 3; Trypan blue dye exclusion analysis of Jurkat cells treated with bleomycin (A) or colchicine (B) with or without indicated peptides. Bars, SD Vertical axis, % viability of the cells; Bleo 5, bleomycin 5 μg/ml; Bleo 10, bleomycin 10 μg/ml; colchicine, 5 μg/ml; TAT-S216 or TAT-S216A, 10 μM of indicated peptide. […] C, survival analysis of PHA blasts treated with bleomycin and peptides. Vertical axis, % viability of the cells determined by trypan blue dye exclusion analysis; horizontal axis, time in hours. Bleo 5, bleomycin 5 μg/ml; Bleo 10, bleomycin 10 μg/ml; TAT-S216 or TAT-S216A, 10 μM of indicated peptide. D, FACS analysis of the cells treated with bleomycin and peptides. PHA-blasts were treated with bleomycin with or without peptides for 20 hr. Vertical axis, cell number; horizontal axis, DNA content indicated by propidium iodide staining.

[4] = tested on: PHA blasts (mitogen-activated normal human T lymphocytes); test: FACS analysis of PHA blasts treated with bleomycin and peptides; assay type: cell-based; settings: FIG. 3D; for cell cycle pattern of PHA blasts, peptide in addition to bleomycin: 20 hr
Procedure: as §1, §3
In order to confirm the specificity of the effect of these peptides on cancer cells in which the G1 checkpoint is abrogated; the effect of these peptides on normal human cells was investigated. Mitogen-activated normal human T lymphocytes (PHA blasts) were prepared by stimulating peripheral blood mononuclear cells obtained from a healthy donor with PHA for 1 week. These cells were treated with bleomycin (5 and 10 μg/ml) in the presence or absence of either TAT-S216A or TAT-S216.

hChk1 = molecular target: T1, hChk1 (Homo sapiens, UniProt O14757, I471V); test: In vitro immune complex kinase assay, Cdc25C phosphorylation by purified hChk1; assay type: biochemical; settings: FIG. 1B; peptide 10 μM; substrate 1 μM
T1 construct: made in house; host or cells: insect cells, recombinant baculovirus (lysates provided by Dr. Makoto Nakanishi)
T1 sequence (O14757 1-476 I471V): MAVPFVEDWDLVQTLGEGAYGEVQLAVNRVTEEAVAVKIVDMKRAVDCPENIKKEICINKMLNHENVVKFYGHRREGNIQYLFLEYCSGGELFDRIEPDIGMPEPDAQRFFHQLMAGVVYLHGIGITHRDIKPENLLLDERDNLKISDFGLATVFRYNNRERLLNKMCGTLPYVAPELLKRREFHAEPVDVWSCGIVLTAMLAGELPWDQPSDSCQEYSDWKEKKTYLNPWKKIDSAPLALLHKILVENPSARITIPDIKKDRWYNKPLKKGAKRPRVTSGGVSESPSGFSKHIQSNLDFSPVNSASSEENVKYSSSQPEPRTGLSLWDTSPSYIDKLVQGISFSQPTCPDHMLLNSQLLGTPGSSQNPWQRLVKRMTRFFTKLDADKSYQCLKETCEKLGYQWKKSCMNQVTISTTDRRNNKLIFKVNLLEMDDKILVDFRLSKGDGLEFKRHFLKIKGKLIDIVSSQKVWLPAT
Procedure: Kinase assay. HA-tagged hChk1 (SEQ ID NO:3) and c-myc-tagged Chk2/HuCds1 (SEQ ID NO:4) expressed in insect cells using recombinant baculovirus (see, e.g., Kaneko (1999) Oncogene 18:3673-3681) were purified by immunoprecipitation using anti-HA or anti-c-myc antibodies and protein G-Sepharose. Immune complex kinase reaction was done in PBS with 1 mM DTT, 1 mM MgCl2 and 100 μCi of [γ-^32P] ATP (Amersham; 6000 Ci/mmol) plus purified 1 μM GST-Cdc25C or 10 μM Cdc25C peptide (amino acid 211 to 221 of Cdc25C (SEQ ID NO: 2); […], Sawady Technology Co.) substrates at 30° C. for 15 min in the presence of 10 μM TAT-S216, TAT-S216A or TAT-Control. After the reaction, samples were separated in 12% or 15% SDS-PAGE and autoradiographed to detect GST-Cdc25C or peptide phosphorylation.
The results are shown in FIG. 1: TAT-S216A and TAT-S216 peptides inhibit hChk1 and Chk2/HuCds1 kinase activities in vitro. FIG. 1A. sequences of the peptides. FIG. 1B, in vitro phosphorylation analysis using GST-Cdc25C and purified hChk1. GST-Cdc25C (amino acid 200-256) that was produced in E. coli (DH5α) was used as substrate (1 μM). Immune complex kinase reaction was done in the presence of TAT-S216A (10 μM) or TAT-S216 (10 μM). FIG. 1C, in vitro phosphorylation analysis of hChk1 and Chk2/HuCds1 using synthesized Cdc25C peptide corresponding amino acid 211-221 of Cdc25C ([…] (SEQ ID NO: 2)) as a substrate (10 μM).

Jurkat cells [5] = test: FACS DNA content of bleomycin-treated Jurkat cells with oligopeptides (Example 3); assay type: cell-based, human; settings: FIG. 6, bleomycin 20 μg/ml, 0, 6, 12, 24 hours
Procedure: The cells with the deficient cell cycle G1 checkpoint (such as a human leukemia-derived cell line Jurkat) were treated with a DNA damaging treatment. As the DNA damaging treatment, the cells were treated with bleomycin or other anti-cancer drugs. These drugs were added to the cell culture medium. Alternatively, the cells were irradiated with gamma irradiation. Peptides were added to these cells and the amount of DNA was determined some 10 to 48 hours after the DNA damage. The harvested cells were re-suspended with the solution that includes propidium iodide, RNase and NP-40 and analyzed by flow cytometer. […]
Jurkat cells were cultured in 10% fetal calf serum with a medium (RPMI 1640) at 37° C./5% CO2 with: bleomycin at 20 μg/ml; bleomycin at 20 μg/ml and the peptide “4aa” (amino acid sequence is GGSPSM (SEQ ID NO: 1931)); bleomycin at 20 μg/ml and the peptide AAA (Table 1); bleomycin at 20 μg/ml and the peptide YNP (Table 1). The amount of DNA was analyzed at 0, 6, 12, 24 hours after the addition of ten microgram of bleomycin with or without the oligopeptides “4aa,” “YNP” and “AAA.” The DNA quantity was analyzed by a flow cytometer (FACS) after the addition of a solution comprising propidium iodide, RNase and NP-40. […]

Jurkat cells [6] = test: FACS DNA content of colchicine-treated Jurkat cells with oligopeptides (Example 3); assay type: cell-based, human; settings: FIG. 7; colchicine 2.5 μg/ml
Procedure: Other screening methods can be used to identify selective inhibitors of the G2 cell cycle checkpoint. For, the cells are simultaneously treated with an oligopeptide “candidate phosphorylation substrate” and an M phase checkpoint activator, such as colchicine or nocodazol. The DNA content of the cells are analyzed some 10 to 48 hours after the treatment as described above.
In another experiment, an M phase checkpoint activator, colchicine, was used instead of bleomycin: colchicine at 2.5 μg/ml; colchicine at 2.5 μg/ml and the peptide “4aa”; colchicine at 2.5 μg/ml and the peptide AAA (Table 1); colchicine at 2.5 μg/ml and the peptide YNP (Table 1), and no treatment.

[7] = tested on: PHA blasts (mitogen-activated normal human T lymphocytes); test: Trypan blue dye exclusion survival analysis of PHA blasts treated with bleomycin and peptides; assay type: cell-based; settings: FIG. 3C; bleomycin 5 and 10 μg/ml; peptide 10 μM
Procedure: Cell culture and plasmids. A human T-cell leukemia-derived cell line, Jurkat, was cultured in RPMI 1640 (Sigma) supplemented with 10% fetal calf serum. (IBL: Immuno-Biological Laboratories, Gunma, Japan) at 37° C./5% CO2. Human pancreatic epitheloid carcinoma-derived cell lines, MIA PaCa2 and PANC1, were cultured in Eagle's MEM (IWAKI, Chiba, Japan) and Dulbecco's modified Eagle's medium with 4 mM […] (Sigma) and 1.0 mM sodium pyruvate (Life Technologies, Inc., Grand Island, N.Y.), respectively, and supplemented with 10% fetal calf serum at 37° C./5% CO2. Normal human peripheral blood lymphocytes were collected by Ficoll-Paque (Amersham Pharmacia Biotech) density gradient. Two million cells/ml were cultured in RPMI 1640 supplemented with 10% fetal calf serum at 37° C./5% CO2 in the presence of 5 μg/ml PHA (Life Technologies, Inc.) for a week. Baculovirus lysates that include HA-tagged hChk1 (SEQ ID NO:3) or c-myc-tagged Chk2/HuCds1 (SEQ ID NO:4) and plasmid for GST-Cdc25C (amino, acid 200-256) were made as described in Matsuoka (1998) Science 282:1893-1897, and provided by Dr. Makoto Nakanishi (Department of Biochemistry, Nagoya City University.
The effect of TAT-S216A and TAT-S216 on the cell death induced by bleomycin was examined. […] Vertical axis, % viability of the cells determined by trypan blue dye exclusion analysis; horizontal axis, time in hours. […]

Bleomycin [reference compound]
cell cycle arrest of Jurkat cells by bleomycin alone (Jurkat cells [1]): arrested exclusively at G2
histone H1 kinase activity on treatment with drug alone ([2]; bleomycin 10 μg/ml or hydroxyurea 100 μg/ml): decreased
Jurkat cells killed, bleomycin alone (Jurkat cells [3]; FIG. 3A, bleomycin at 5 or μ10 g/ml): 27-30%
cell cycle arrest of PHA blasts by bleomycin alone ([4]; bleomycin 5 μg/ml): arrested at G1 and S phase but not G2

TAT-Control: control peptide: TAT domain with Cdc25C portion partially deleted and substituted with glycine (GGRSPAMPE) (YGRKKRRQRRRGGRSPAMPE)
phosphorylation of GST-Cdc25C (amino acid 200-256) by baculovirus-produced hChk1 (hChk1): did not inhibit
G2 arrest in response to bleomycin (Jurkat cells [1]; FIG. 2A, peptide 10 μM, 20 hr): arrested at G2 similarly to the cells treated with bleomycin alone
histone H1 kinase activity on bleomycin treatment in the presence of peptide ([2]; bleomycin 10 μg/ml, peptide 10 μM): did not affect
effect on bleomycin-induced cell death / viability of bleomycin-treated Jurkat cells (Jurkat cells [3]; FIG. 3A, bleomycin 5 or 10 μg/ml, peptide 10 μM): did not affect the viability

Y G G P G G G G N (YGGPGGGGN) [YPN]
G2 checkpoint / accumulation of bleomycin-treated cells at G2/M (Jurkat cells [5]): specifically abrogated the cell cycle at the G2 checkpoint
G2 checkpoint / accumulation of bleomycin-treated cells at G2/M (Jurkat cells [5]; listed as YNP): abrogated the G2 checkpoint
accumulation of colchicine-treated cells at the G2/M phase (Jurkat cells [6]): None of the above tested oligopeptides (Table 1), including, YPN, affected the accumulation

YGRKKRRQRRRLYRSPAMPENL [TAT-S216A]
effect on cytotoxicity by colchicine (Jurkat cells [3]; peptide 10 μM): did not affect the cytotoxicity by colchicine
effect on cytotoxicity of bleomycin to normal cells (PHA blasts) [7]: did not increase the cytotoxicity of bleomycin to normal cells
cell cycle pattern of PHA blasts, peptide in addition to bleomycin [4]: no further alteration of cell cycle pattern was observed

YGRKKRRQRRRLYRSPSMPENL [TAT-S216]
effect on cytotoxicity by colchicine (Jurkat cells [3]; peptide 10 μM): did not affect the cytotoxicity by colchicine
effect on cytotoxicity of bleomycin to normal cells (PHA blasts) [7]: did not increase the cytotoxicity of bleomycin to normal cells
cell cycle pattern of PHA blasts, peptide in addition to bleomycin [4]: no further alteration of cell cycle pattern was observed

— patent US7851592B2, “Compositions and methods for inhibiting G2 cell cycle arrest and sensitizing cells to DNA damaging agents” (CanBas Co. Ltd., priority 1999, dated 2010)
